Measured values as given in US10293014B2, “Immune stimulating composition comprising an extract of Aronia sp. in combination with selenium and/or zinc” (Ursapharm Arzneimittel GmbH, priority 2009, dated 2019).

Tested on: macrophages of the mouse leukaemic monocyte macrophage cell line RAW 264.7
Assay: Chemiluminescence assay of macrophage activity (lucigenine, zymosan)
Type: cell-based
Conditions: selenium alone, RAW 264.7, FIG. 3
Protocol: Cells: Cell line (RAW 264.7, murine macrophages) was purchased from the America Type Culture Collection and cultivated as recommended.
Chemiluminescence Assay: Lucigenine (Sigma Chemicals Co.) was dissolved in Hank's Balanced Salt Solution (HBSS; Gibco Co.) at a concentration of 2×10^−3 M. This stock solution was further diluted in HBSS prior to use. 1 ml cells (5×10^6 cells/ml) were incubated with 0.1 ml solution of Aronia extract and Aronia extract together with sodium selenite (dosis kinetics for each component and the combinations as documented in the figures). All these constituents were kept in an incubator (37° C., 5% CO2) for 30 min, then centrifuged at 1200 U/min for 5 min and resuspended in minimal essential medium (MEM, Gibco Co.).
The reaction mixture consisted of a suspension (0.25 ml) at a concentration of 5×10^6 PMNL (polymorphonuclear leucocytes)/ml respectively monocytes/macrophages, 50 μl zymosan, and 0.45 ml medium containing 2×10^−6 M lucigenine. The reaction mixture was kept at 37° C. before chemoluminescence measurements were performed with a Luminometer (Luminoskan 1251, Labsystems) according to manufacturer's instructions (User's Manual 1995).

Structure (SMILES): O=[Se]([O-])[O-].[Na+].[Na+] [selenium, sodium selenite]
- concentrations that decrease macrophage activity: > 8 µg/mL
